Laboratory results from patent publication US9709886B2, “Sulfonic acid derivative compounds as photoacid generators in resist applications” (Heraeus Precious Metals North America Daychem LLC, priority 2015, dated 2017).

Legend:
Assay type in all cases: physicochemical
[1] = Photolysis of PAGs in acetonitrile, irradiation at 365 nm (photoreactivity); conditions: for Solubility × Photoreactivity: solubility in PGMEA times relative photoreactivity at 365 nm
Text: A photoresist composition typically comprises PAG, polymers, additives and solvents. The performance of a photoresist composition is mainly dependent on the properties of the PAG and polymer components. To formulate a high-performance photoresist composition, more photosensitive PAGs are typically selected. The photosensitivity of a PAG is typically directly related to the strength of the generated acid and the photoreactivity of the PAG. For a series of PAGs producing the same latent acid, their photosensitivity is related only to their photoreactivity. Thus evaluating the photosensitivity of a PAG can be achieved by studying its photoreactivity. The higher photoreactivity, the higher photosensitivity. The photoreactivity can be investigated by photolysis of a PAG in its dilute solution under low exposure intensity (to avoid side reactions which don't generate the desired acid). The change in the concentration of a PAG upon irradiation can be determined by measuring the absorbance of the PAG at the maximum absorption wavelength.
(§1) Photolysis of PAGs was carried out in acetonitrile in air at room temperature. The sodium salt of tetrabromophenol blue (TBPBNa), an acid indicator dye, which has a maximum absorption at 618 nm, was purchased from Aldrich (indicator grade) and used as received. Irradiation of the solution of the PAGs (3×10^−5 M) was performed using a Cole-Parmer UV 15 W bench lamp (EW-97605-50) at 365 nm. Light intensity was measured using an UV Power Puck II radiometer from EIT Inc. UV-Vis spectra were run on a Thermo Scientific Evolution 201 UV-visible spectrophotometer.
Photolysis of NIT, comparative compound A and B, T1, T2, T3, and T5 was examined in acetonitrile. […] The absorption band at 362 nm (λmax) gradually decreases upon irradiation, indicating the progress of photoreaction with the increase of exposure dose of energy. Assuming the photoreaction is first-order, a plot of the natural log of changes in absorbance with exposure dose of energy gives the photoreaction constant of T3 (i.e., the slope of the linear trendline) (FIG. 2). The photoreaction constants of other compounds were similarly determined under the same irradiation condition. Comparing the constants of A, B, T1, T2, T3, and T5 with that of NIT normalized to one gives the relative photoreactivity (Table 9). […] The formation of acid upon irradiation was confirmed by observing the spectral changes of the acid indicator, TBPBNa at 618 nm.

[2] = Solubility of PAG in organic solvents at 20° C.; conditions: Table 9; Propylene glycol monomethyl ether acetate
[3] = Solubility of PAG in organic solvents at 20° C.; conditions: for Solubility (w/w%) PGMEA: Propylene glycol monomethyl ether acetate; for Solubility (w/w%) GBL: γ-Butyrolactone; for solubility in the tested solvents: PGMEA, GBL; for Solubility (w/w%) Cyclohexanone / solubility in the tested solvents: cyclohexanone
Text: Solubility is an important factor in the evaluation of a PAG. High solubility not only makes a PAG purified readily but also enables a PAG to be used for a wide range of concentrations in photoresists and in varied solvent systems. To test the solubility of a PAG, a solvent is slowly added until the PAG is completely dissolved and no turbidity is observed in the clear solution. Table 8 lists the solubility (w/w %) of some representative N-hydroxynaphthalimide sulfonate derivatives versus NIT in various organic solvents at 20° C.

UV-Vis spectra in ACN = conditions: FIG. 4, in ACN (0.001% w/v)
Method: FIG. 4 is a UV-Vis spectra of compounds NIT, T1, T2 and T5 in ACN (0.001% w/v).
as §1

| SMILES | Solubility × Photoreactivity [1] [%] | Solubility (w/w%) in PGMEA [2] [% w/w%] | Solubility (w/w%) PGMEA [3] [% w/w%] | Solubility (w/w%) Cyclohexanone [3] [% w/w%] | Solubility (w/w%) GBL [3] [% w/w%] | absorbance at i-line of a mercury lamp versus NIT (UV-Vis spectra in ACN) | absorption maximum (UV-Vis spectra in ACN) [nm] | solubility in the tested solvents [3] | absorption band (λmax) ([1]; FIG. 1, acetonitrile, before irradiation at 365 nm) [nm] |
| --- | --- | --- | --- | --- | --- | --- | --- | --- | --- |
| O=C1c2cccc3c(C#Cc4ccccc4)ccc(c23)C(=O)N1OS(=O)(=O)C(F)(F)F [A, reference compound] | 2.5 | 1.0 | 1.0 | 3.5 | 0.9 | – | – | – | – |
| CCCCC#Cc1ccc2c3c(cccc13)C(=O)N(OS(=O)(=O)C(F)(F)F)C2=O [B, reference compound] | 48.8 | 6.1 | 6.1 | 11.5 | 2.3 | – | – | – | – |
| CCCCC#Cc1ccc2c3c(cccc13)C(=O)N(OS(=O)(=O)C(F)(F)C(F)(F)C(F)(F)C(F)(F)F)C2=O [Compound T1] | 77.2 | 8.3 | 8.3 | 19.7 | 1.5 | much larger than that of NIT | 362 | – | – |
| CCCCCCC#Cc1ccc2c3c(cccc13)C(=O)N(OS(=O)(=O)C(F)(F)F)C2=O [Compound T2] | 394 | 45.8 | 45.8 | 52.4 | 23.1 | much larger than that of NIT | 362 | extremely high solubility | – |
| CCCCCCC#Cc1ccc2c3c(cccc13)C(=O)N(OS(=O)(=O)C(F)(F)C(F)(F)C(F)(F)C(F)(F)F)C2=O [Compound T3] | 198 | 20.6 | 20.6 | 42.0 | 2.2 | – | – | – | 362 |
| CCCC(=O)OCC#Cc1ccc2c3c(cccc13)C(=O)N(OS(=O)(=O)C(F)(F)F)C2=O [Compound T5] | 200 | 50.1 | 50.1 | 55.4 | 32.4 | much larger than that of NIT | 353 | extremely high solubility | – |
| O=C1c2cccc3cccc(c23)C(=O)N1OS(=O)(=O)C(F)(F)F [NIT, N-Hydroxynaphthalimide triflate, reference compound] | 1.7 | 1.7 | 1.7 | 5.9 | 2.2 | – | – | – | – |
